According to ChEMBL document CHEMBL3399932, “Synthesis of new N-benzylpiperidine derivatives as cholinesterase inhibitors with β-amyloid anti-aggregation properties and beneficial effects on memory in vivo” (Bioorg Med Chem, 2015):
Active and inactive are the calls of the source. No cut-off for these calls is given here.

Assays:
Acetylcholinesterase = Acetylcholinesterase (Electrophorus electricus, UniProt O42275)
Cholinesterase = Cholinesterase (Equus caballus, UniProt P81908)
[1] = molecular target: Acetylcholinesterase (Electrophorus electricus) (UniProt O42275); test: Inhibition of electric eel AChE using acetylthiocholine iodide as substrate preincubated at 10^-4 mol/L for 5 mins by Ellman method
Chain of Acetylcholinesterase (Electrophorus electricus) (O42275 24-633 limits assumed): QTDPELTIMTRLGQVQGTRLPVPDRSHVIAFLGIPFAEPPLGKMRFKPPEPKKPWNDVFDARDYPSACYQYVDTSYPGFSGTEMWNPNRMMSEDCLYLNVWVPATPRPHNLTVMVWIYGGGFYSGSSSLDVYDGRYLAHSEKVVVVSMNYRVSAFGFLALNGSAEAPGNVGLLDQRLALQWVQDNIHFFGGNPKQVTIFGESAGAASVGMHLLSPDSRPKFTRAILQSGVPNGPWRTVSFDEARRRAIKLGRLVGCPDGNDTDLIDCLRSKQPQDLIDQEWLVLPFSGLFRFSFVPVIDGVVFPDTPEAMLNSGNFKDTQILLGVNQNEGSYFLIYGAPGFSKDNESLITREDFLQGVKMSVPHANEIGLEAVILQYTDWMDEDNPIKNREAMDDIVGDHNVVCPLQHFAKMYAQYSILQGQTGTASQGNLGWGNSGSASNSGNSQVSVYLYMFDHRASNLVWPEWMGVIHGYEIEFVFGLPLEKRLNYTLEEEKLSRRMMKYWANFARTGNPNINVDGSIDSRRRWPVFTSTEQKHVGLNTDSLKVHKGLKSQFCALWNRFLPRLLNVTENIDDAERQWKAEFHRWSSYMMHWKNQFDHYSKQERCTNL

[2] = PAMPA, 2 h
[3] = molecular target: Cholinesterase (Equus caballus) (UniProt P81908); test: Inhibition of horse serum BChE using butyrylthiocholine iodide as substrate preincubated at 0.5 to 1 uM for 5 mins by Lineweaver-Burk plot method
Chain of Cholinesterase (Equus caballus) (P81908 whole entry): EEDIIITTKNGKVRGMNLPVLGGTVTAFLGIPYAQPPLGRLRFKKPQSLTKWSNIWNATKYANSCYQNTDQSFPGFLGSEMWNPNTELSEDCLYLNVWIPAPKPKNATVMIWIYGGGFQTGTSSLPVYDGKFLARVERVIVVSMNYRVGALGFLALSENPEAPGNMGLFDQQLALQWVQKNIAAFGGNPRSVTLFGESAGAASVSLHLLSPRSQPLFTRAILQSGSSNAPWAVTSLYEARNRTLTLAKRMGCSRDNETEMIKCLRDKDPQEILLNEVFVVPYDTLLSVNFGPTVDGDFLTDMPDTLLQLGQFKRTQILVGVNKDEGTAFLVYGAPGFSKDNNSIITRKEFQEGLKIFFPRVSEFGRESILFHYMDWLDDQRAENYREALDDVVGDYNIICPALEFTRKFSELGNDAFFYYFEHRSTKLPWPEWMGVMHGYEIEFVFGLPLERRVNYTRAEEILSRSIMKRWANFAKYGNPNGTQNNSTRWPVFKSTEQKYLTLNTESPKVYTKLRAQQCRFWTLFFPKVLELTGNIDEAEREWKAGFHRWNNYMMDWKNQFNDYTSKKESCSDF

[4] = molecular target: Acetylcholinesterase (Electrophorus electricus) (UniProt O42275); conditions: 5 to 10 uM
[5] = molecular target: Cholinesterase (Equus caballus) (UniProt P81908); test: Inhibition of horse serum BChE using butyrylthiocholine iodide as substrate preincubated at 10^-4 mol/L for 5 mins by Ellman method
Mus musculus [6] = test: Effect on scopolamine-induced cognitive dysfunction in albino Swiss CD-1 mouse assessed as reduction in step-through latency time during retention trial at 5 to 30 mg/kg, ip administered 1 hr before the acquisition trial measured 24 hrs after acquisition trial over 180 seconds by passive avoidance test; assay type: functional, organism-based
Mus musculus [7] = test: Toxicity in albino Swiss CD-1 mouse assessed as decrease in impairment of motor coordination at 24 rpm at 30 mg/kg, ip administered 1 hr before test by rotarod test; assay type: organism-based; set-up: dose 30 mg/kg, route intraperitoneal; scale not given: the % may be the effect or the level left; conditions: in vivo
Mus musculus [8] = test: Effect on scopolamine-induced cognitive dysfunction in albino Swiss CD-1 mouse assessed as reduction in step-through latency time at 5 to 30 mg/kg, ip administered 1 hr before the acquisition trial by passive avoidance test; assay type: functional, organism-based
Mus musculus [9] = test: Sedative activity in albino Swiss CD-1 mouse assessed as decrease in spontaneous locomotor activity at 30 mg/kg, ip administered 1 hr before test measured at 18 to 30 mins of test; assay type: ADME, organism-based; set-up: dose 30 mg/kg, route intraperitoneal; conditions: in vivo
Mus musculus [10] = test: Toxicity in albino Swiss CD-1 mouse assessed as decrease in impairment of motor coordination at 6 to 18 rpm at 30 to 100 mg/kg, ip administered 1 hr before test by rotarod test; assay type: organism-based; set-up: dose 30-100 mg/kg, route intraperitoneal; conditions: in vivo
[11] = molecular target: Amyloid-beta precursor protein (Homo sapiens) (UniProt P05067); test: Inhibition of self-induced beta-amyloid (1 to 42) (unknown origin) aggregation by thioflavin-T assay
Chain of Amyloid-beta precursor protein (Homo sapiens) (P05067 whole entry): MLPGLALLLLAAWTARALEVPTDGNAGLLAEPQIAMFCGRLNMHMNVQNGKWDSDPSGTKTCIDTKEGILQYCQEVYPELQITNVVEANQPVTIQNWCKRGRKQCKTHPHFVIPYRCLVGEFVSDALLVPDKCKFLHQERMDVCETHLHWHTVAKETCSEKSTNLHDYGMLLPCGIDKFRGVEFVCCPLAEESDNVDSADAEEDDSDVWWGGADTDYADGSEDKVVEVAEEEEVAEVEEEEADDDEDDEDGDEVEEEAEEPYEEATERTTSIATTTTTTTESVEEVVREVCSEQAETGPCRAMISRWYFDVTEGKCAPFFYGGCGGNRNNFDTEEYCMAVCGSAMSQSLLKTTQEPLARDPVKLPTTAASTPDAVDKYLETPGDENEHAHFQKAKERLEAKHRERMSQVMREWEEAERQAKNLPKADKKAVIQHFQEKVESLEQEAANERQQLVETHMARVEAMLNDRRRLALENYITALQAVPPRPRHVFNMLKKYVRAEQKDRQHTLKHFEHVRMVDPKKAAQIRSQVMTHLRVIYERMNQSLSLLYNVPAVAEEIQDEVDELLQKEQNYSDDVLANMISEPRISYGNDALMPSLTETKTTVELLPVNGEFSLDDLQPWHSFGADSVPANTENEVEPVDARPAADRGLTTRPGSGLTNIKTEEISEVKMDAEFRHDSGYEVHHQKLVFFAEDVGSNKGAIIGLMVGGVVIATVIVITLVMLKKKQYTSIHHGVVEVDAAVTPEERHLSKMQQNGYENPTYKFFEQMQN

Mus musculus [12] = test: Toxicity in albino Swiss CD-1 mouse assessed as decrease in impairment of motor coordination at 24 rpm at 100 mg/kg, ip administered 1 hr before test by rotarod test; assay type: organism-based; set-up: dose 100 mg/kg, route intraperitoneal; conditions: in vivo
Mus musculus [13] = test: Sedative activity in albino Swiss CD-1 mouse assessed as decrease in spontaneous locomotor activity at 30 mg/kg, ip administered 1 hr before test measured up to 6 mins of test; assay type: ADME, organism-based; set-up: dose 30 mg/kg, route intraperitoneal; conditions: in vivo

Chain of Acetylcholinesterase (O42275 whole entry): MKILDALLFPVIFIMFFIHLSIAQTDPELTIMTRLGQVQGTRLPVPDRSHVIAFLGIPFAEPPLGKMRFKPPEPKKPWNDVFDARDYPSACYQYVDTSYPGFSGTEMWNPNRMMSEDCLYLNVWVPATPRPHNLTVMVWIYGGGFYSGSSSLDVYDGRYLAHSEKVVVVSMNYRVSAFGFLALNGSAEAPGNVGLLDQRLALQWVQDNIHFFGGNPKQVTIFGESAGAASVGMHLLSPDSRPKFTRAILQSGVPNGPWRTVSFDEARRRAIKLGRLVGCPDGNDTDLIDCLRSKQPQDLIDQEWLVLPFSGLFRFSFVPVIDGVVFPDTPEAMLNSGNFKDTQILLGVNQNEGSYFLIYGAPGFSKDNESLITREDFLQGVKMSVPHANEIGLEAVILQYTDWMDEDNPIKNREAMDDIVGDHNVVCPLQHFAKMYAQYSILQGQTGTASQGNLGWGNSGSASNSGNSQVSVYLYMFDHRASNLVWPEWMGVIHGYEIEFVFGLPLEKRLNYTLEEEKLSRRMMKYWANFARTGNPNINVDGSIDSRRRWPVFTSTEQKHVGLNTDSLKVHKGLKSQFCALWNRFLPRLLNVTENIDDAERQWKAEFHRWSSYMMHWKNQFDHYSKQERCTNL
Chain of Cholinesterase (P81908 whole entry): as the sequence (P81908 whole entry) above

SMILES	IC50 (Acetylcholinesterase)	IC50 (Cholinesterase)	other results
Clc1cccc(CN2CCC(NCCCCCCn3ccc4ccccc43)CC2)c1	53.2 µM	0.83 µM	
O=C1c2ccccc2C(=O)N1CCCNC1CCN(Cc2ccccc2)CC1	8.11 µM	51.8 µM	
COc1ccc(CN2CCC(NCCCCCCn3ccc4ccccc43)CC2)cc1		0.52 µM	inhibition [1]: < 60%
COc1ccc(CN2CCC(NCCCN3C(=O)c4ccccc4C3=O)CC2)cc1		26.8 µM	inhibition [1]: < 60%
Clc1cccc(CN2CCC(NCCCCCCCCn3ccc4ccccc43)CC2)c1	21.7 µM	0.75 µM	
O=C1c2ccccc2C(=O)N1CCCCCCCCNC1CCN(Cc2ccc(O)cc2)CC1	23.5 µM	0.81 µM	
COc1ccc(CN2CCC(NCCCCCCCCN3C(=O)c4ccccc4C3=O)CC2)cc1	43.3 µM	5.65 µM	
O=C1c2ccccc2C(=O)N1CCCCCCCCNC1CCN(Cc2ccccc2)CC1	17.7 µM	1.98 µM	
O=C1c2ccccc2C(=O)N1CCCCCCNC1CCN(Cc2cccc(Cl)c2)CC1	54.4 µM	2.73 µM	
Fc1ccccc1CN1CCC(NCCCCCCCCn2ccc3ccccc32)CC1	29.6 µM	0.93 µM	
O=C1c2ccccc2C(=O)N1CCCNC1CCN(Cc2ccccc2F)CC1	23.1 µM	10.5 µM	
COc1ccc(CN2CCC(NCCCCCCN3C(=O)c4ccccc4C3=O)CC2)cc1		7.39 µM	inhibition [1]: < 60%
c1ccc(CN2CCC(NCCCCCCn3ccc4ccccc43)CC2)cc1	0.01 µM	15.3 µM	
COc1ccc(CN2CCC(NCCCCCCCCn3ccc4ccccc43)CC2)cc1		0.34 µM	inhibition [1]: < 60%
CC(C)NCC(O)COc1cccc2ccccc12 (stereo not drawn) [PROPRANOLOL]			log Pe [2]: -3.5
O=C1c2ccccc2C(=O)N1CCCCCCNC1CCN(Cc2ccccc2)CC1	45.4 µM	12.8 µM	
O=C1c2ccccc2C(=O)N1CCCCCCNC1CCN(Cc2ccc(O)cc2)CC1	29.8 µM	2.32 µM	
O=C1c2ccccc2C(=O)N1CCCCCCNC1CCN(Cc2ccccc2F)CC1	85.3 µM	4 µM	
O=C1c2ccccc2C(=O)N1CCCNC1CCN(Cc2ccc(O)cc2)CC1	4.52 µM	9.37 µM	inhibition [3]: Active; inhibition [4]: Active
c1ccc(CN2CCC(NCCCCCCCCn3ccc4ccccc43)CC2)cc1	70.1 µM	1.08 µM	
CC(=O)[C@H]1CC[C@H]2[C@@H]3CCC4=CC(=O)CC[C@]4(C)[C@H]3CC[C@]12C [PROGESTERONE]			log Pe [2]: -5.1
O=C1c2ccccc2C(=O)N1CCCNC1CCN(Cc2cccc(Cl)c2)CC1	68.3 µM	4.53 µM	
c1ccc(CN2CCC(NCCCCCn3ccc4ccccc43)CC2)cc1	0.02 µM	1.83 µM	
O=C1c2ccccc2C(=O)N1CCCCCCCCNC1CCN(Cc2ccccc2F)CC1	43.4 µM	1.87 µM	
O=C1c2ccccc2C(=O)N1CCCCCNC1CCN(Cc2ccccc2)CC1	69 µM		inhibition [5]: < 60%
Oc1ccc(CN2CCC(NCCCCCCn3ccc4ccccc43)CC2)cc1		1.78 µM	inhibition [1]: < 60%
Oc1ccc(CN2CCC(NCCCCCCCCn3ccc4ccccc43)CC2)cc1		1.33 µM	inhibition [1]: < 60%
c1ccc(CN2CCC(NCCCn3ccc4ccccc43)CC2)cc1		0.002 µM	inhibition [1]: < 60%
O=C1c2ccccc2C(=O)N1CCCCCCCCNC1CCN(Cc2cccc(Cl)c2)CC1		0.72 µM	Activity (Mus musculus [6]): Active; Activity (Mus musculus [7]): 38%; inhibition [1]: < 60%; Activity (Mus musculus [8]): Active; Activity (Mus musculus [9]): Toxic; Activity (Mus musculus [10]): Non-toxic; inhibition [11]: Dose-dependent effect; Activity (Mus musculus [12]): Toxic; Activity (Mus musculus [13]): Non-toxic
Fc1ccccc1CN1CCC(NCCCCCCn2ccc3ccccc32)CC1	42 µM	3.41 µM	
